According to patent publication US10626438B2, “Fluorescent substrates for determining lysine modifying enzyme activity” (The Broad Institute, Inc., priority 2011, dated 2020):

Biological target: HDAC1 (Homo sapiens, UniProt Q13547)
Conditions: for T(½): Broad Substrate A; for mechanism of inhibition (on/off kinetics): progress curves monitored for 4 hours and reversibility by 100-fold dilution

Sequence of HDAC1 (Q13547 whole entry): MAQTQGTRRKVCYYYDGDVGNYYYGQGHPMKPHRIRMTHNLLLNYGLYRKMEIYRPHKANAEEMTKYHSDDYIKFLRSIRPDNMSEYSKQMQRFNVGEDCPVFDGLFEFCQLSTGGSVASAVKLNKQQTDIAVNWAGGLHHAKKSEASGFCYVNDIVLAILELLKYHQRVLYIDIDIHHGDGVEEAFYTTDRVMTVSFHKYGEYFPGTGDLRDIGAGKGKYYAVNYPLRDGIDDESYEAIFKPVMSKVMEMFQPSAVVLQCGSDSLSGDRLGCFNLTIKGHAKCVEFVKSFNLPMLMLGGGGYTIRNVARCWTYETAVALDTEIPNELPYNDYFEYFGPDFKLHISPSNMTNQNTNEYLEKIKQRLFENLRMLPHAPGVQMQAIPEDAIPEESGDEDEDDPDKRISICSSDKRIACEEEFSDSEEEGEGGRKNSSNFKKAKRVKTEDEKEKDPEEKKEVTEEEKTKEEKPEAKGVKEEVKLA

SMILES	T(½)	mechanism of inhibition (on/off kinetics)
CC(=O)Nc1ccc(C(=O)Nc2ccccc2N)cc1 [CI-994]	74 min	slow on/slow off inhibitor
O=C(CCCCCCC(=O)Nc1ccccc1)NO [SAHA]	<4 min	fast on/fast off inhibitor
